The supplement of paper PMC11208160

Assay: recombinant barcode read abundance after kanamycin selection (control-corrected) (log10(CPM+1)); higher = more efficient recombination; sequences stand for … in AGTGCAGAGAAAATCGGCCAGTTTTCTCTGCCTGCAGTCCGCATGCCGT…ATTTATGCAGCGGACTGCCTTTCTCCCAAAGTGATAAACCGGACAGTATCATGGACCGGTTTTCCCGGTAATCCGTATTTGCAAGGTTGGTTTCACT; site = the 11-nt target
Summary of the method: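 Recombination efficiency was calculated from barcode counts at recombinant junctions, normalized to counts per million, averaged and corrected by the control. Each value is given as log10(CPM+1). The constructs were Gibson-cloned oligos (promoter, target, barcode, J23119-driven first 104 bridge RNA bases) in a vector with the remaining 73 bp and a T7-inducible recombinase, co-electroporated into E. coli with a donor plasmid and plated in duplicate on chloramphenicol/ampicillin LB agar (control) or chloramphenicol/ampicillin/kanamycin with 0.1 mM IPTG.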

Sequence | recombinant barcode read abundance (log10)
CGGTCCCAGTGGGTTCTAACCTGTTGCCACT [CGGTCCCCTTG_LTGcore_AG_RTGcore_AG] (site CGGTCCCCTTG) (LTG core: AG, RTG core: AG) | 0.258
CGGTCCCCTTGGGTTCTAACCTGTTGCCAAC [CGGTCCCCTTG_LTGcore_CT_RTGcore_GT] (site CGGTCCCCTTG) (LTG core: CT, RTG core: GT) | 0.0684
CGGTCCCCTTGGGTTCTAACCTGTTGCCAAT [CGGTCCCCTTG_LTGcore_CT_RTGcore_AT] (site CGGTCCCCTTG) (LTG core: CT, RTG core: AT) | 0.133
CGGTCCCCTTGGGTTCTAACCTGTTGCCACT [CGGTCCCCTTG_LTGcore_CT_RTGcore_AG] (site CGGTCCCCTTG) (LTG core: CT, RTG core: AG) | 0.0728
CGGTCCCGCTGGGTTCTAACCTGTTGCCAAG [CGGTCCCCTTG_LTGcore_GC_RTGcore_CT] (site CGGTCCCCTTG) (LTG core: GC, RTG core: CT) | 0.313
CGGTCCCGCTGGGTTCTAACCTGTTGCCAGC [CGGTCCCCTTG_LTGcore_GC_RTGcore_GC] (site CGGTCCCCTTG) (LTG core: GC, RTG core: GC) | 0.475
CGGTCCCGGTGGGTTCTAACCTGTTGCCACC [CGGTCCCCTTG_LTGcore_GG_RTGcore_GG] (site CGGTCCCCTTG) (LTG core: GG, RTG core: GG) | 0.213
CGGTCCCTATGGGTTCTAACCTGTTGCCAAG [CGGTCCCCTTG_LTGcore_TA_RTGcore_CT] (site CGGTCCCCTTG) (LTG core: TA, RTG core: CT) | 0.0831
GAGCCCAAGTGGGTTCTAACCTGTTGCCTCT [GAGCCCACTAG_LTGcore_AG_RTGcore_AG] (site GAGCCCACTAG) (LTG core: AG, RTG core: AG) | 0.229
GAGCCCACATGGGTTCTAACCTGTTGCCTAG [GAGCCCACTAG_LTGcore_CA_RTGcore_CT] (site GAGCCCACTAG) (LTG core: CA, RTG core: CT) | 0.304
GAGCCCACTTGGGTTCTAACCTGTTGCCTCC [GAGCCCACTAG_LTGcore_CT_RTGcore_GG] (site GAGCCCACTAG) (LTG core: CT, RTG core: GG) | 0.136
GAGCCCACTTGGGTTCTAACCTGTTGCCTGA [GAGCCCACTAG_LTGcore_CT_RTGcore_TC] (site GAGCCCACTAG) (LTG core: CT, RTG core: TC) | 0.207
GAGCCCACTTGGGTTCTAACCTGTTGCCTGC [GAGCCCACTAG_LTGcore_CT_RTGcore_GC] (site GAGCCCACTAG) (LTG core: CT, RTG core: GC) | 0.3
GAGCCCACTTGGGTTCTAACCTGTTGCCTGG [GAGCCCACTAG_LTGcore_CT_RTGcore_CC] (site GAGCCCACTAG) (LTG core: CT, RTG core: CC) | 0.911
GAGCCCACTTGGGTTCTAACCTGTTGCCTGT [GAGCCCACTAG_LTGcore_CT_RTGcore_AC] (site GAGCCCACTAG) (LTG core: CT, RTG core: AC) | 0.522
GAGCCCACTTGGGTTCTAACCTGTTGCCTTC [GAGCCCACTAG_LTGcore_CT_RTGcore_GA] (site GAGCCCACTAG) (LTG core: CT, RTG core: GA) | 0.518
GAGCCCAGCTGGGTTCTAACCTGTTGCCTAG [GAGCCCACTAG_LTGcore_GC_RTGcore_CT] (site GAGCCCACTAG) (LTG core: GC, RTG core: CT) | 0.266
GAGCCCATGTGGGTTCTAACCTGTTGCCTCA [GAGCCCACTAG_LTGcore_TG_RTGcore_TG] (site GAGCCCACTAG) (LTG core: TG, RTG core: TG) | 0.995
GAGGCCTCTTGGGTTCTAACCTGTTGCCAAC [GAGGCCTCTTG_LTGcore_CT_RTGcore_GT] (site GAGGCCTCTTG) (LTG core: CT, RTG core: GT) | 1.25
